Measurements: patent US20230024442A1, “BIFUNCTIONAL COMPOUNDS FOR GRADING BTK VIA UBIQUITIN PROTEOSOME PATHWAY” (NURIX THERAPEUTICS, INC., priority 2019, published 2023)

The molecules below were run against T1, BTK (Homo sapiens, UniProt Q06187) (assay: Cellular BTK HTRF Assay (BTK levels in Ramos cells)). Settings: Ramos cells, 50,000 cells, incubated four hours at 37° C.; BTK levels by Cisbio Total-BTK HTRF relative to DMSO-treated cells.
T1 construct: endogenous in cells; host or cells: Ramos (ATCC CRL-1596)
Assay type: cell-based
Experimental: Ramos (CRL-1596) cells were obtained from American Type Culture Collection and were grown in RPMI-1640 media (ATCC, 30-2001) supplemented with 10% heat-inactivated FBS (Corning Premium Fetal Bovine Serum from Fisher, MT35015CV).
Compounds of the present invention were added to 50,000 Ramos cells in round-bottom 96 well plates with a final DMSO concentration of […] and were incubated at 37° C. 5% CO2 for four hours. BTK levels were determined using Cisbio Total-BTK HTRF ([…] Time-Resolved Fluorescence) kit (63ADK064PEG) according to manufacturer's protocol. Briefly, cells were incubated in 1× supplied lysis buffer for 30 minutes. In an opaque white low volume 96 well plate (Cisbio, 66PL96005), cell lysate was combined with two different specific BTK antibodies, one conjugated with Eu^3+-Cryptate FRET donor and one conjugated with d2 FRET acceptor. Assay controls include wells containing cell lysate with only the Eu^3+-Cryptate FRET donor antibody and wells containing both HTRF antibodies and lysis buffer without cells or control lysate provided by Cisbio. HTRF ratio was calculated as (acceptor signal at 665 nm/donor signal at 620 nm)×10^4. Background HTRF levels were determined from the control well containing the donor, but no acceptor, antibody. Background HTRF levels were subtracted from all samples. Readouts were reported as HTRF levels relative to HTRF levels of DMSO-treated cells. Four-parameter non-linear regressions were performed in GraphPad Prism 7.02 to obtain DC50 values. DC50 values are provided in Table 7, wherein A<1 nM, 1 nM≤B≤10 nM, and 10 nM<C<1 μM.

T1 sequence (Q06187 whole entry): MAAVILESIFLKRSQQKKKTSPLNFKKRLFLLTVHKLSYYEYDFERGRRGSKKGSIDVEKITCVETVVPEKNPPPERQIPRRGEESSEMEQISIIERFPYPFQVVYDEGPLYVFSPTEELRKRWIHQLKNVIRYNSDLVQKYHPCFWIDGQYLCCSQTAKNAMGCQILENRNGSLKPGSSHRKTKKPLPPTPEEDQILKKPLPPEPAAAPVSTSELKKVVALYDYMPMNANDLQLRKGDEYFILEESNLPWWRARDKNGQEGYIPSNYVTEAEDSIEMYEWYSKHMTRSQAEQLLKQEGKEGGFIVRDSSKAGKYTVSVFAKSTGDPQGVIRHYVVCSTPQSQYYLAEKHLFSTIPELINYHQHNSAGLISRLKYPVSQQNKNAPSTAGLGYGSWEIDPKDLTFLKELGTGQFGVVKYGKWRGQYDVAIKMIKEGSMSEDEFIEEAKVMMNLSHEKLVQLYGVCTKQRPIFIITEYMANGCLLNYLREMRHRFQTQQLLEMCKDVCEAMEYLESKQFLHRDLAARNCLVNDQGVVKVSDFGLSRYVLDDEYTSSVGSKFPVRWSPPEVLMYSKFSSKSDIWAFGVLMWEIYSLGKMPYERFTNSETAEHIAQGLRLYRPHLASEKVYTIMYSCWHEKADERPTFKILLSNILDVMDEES

Row | SMILES | DC50 [nM]
1 | C[C@H]1CN(C(=O)CCOCCOCCOCCCc2cccc3c2CN(C2CCC(=O)NC2=O)C3=O)CCN1c1ccc(Nc2cc(-c3ccnc(N4CCn5c(cc6c5CC(C)(C)C6)C4=O)c3CO)cn(C)c2=O)nc1 (some centres unmarked) [Compound 49] | 1 to 10
2 | Cn1cc(-c2ccnc(-n3ncc4cc(C(C)(C)C)cc(F)c4c3=O)c2CO)cc(Nc2cc3n(n2)CCN(C(=O)CN2CCN(CCCc4cccc5c4C(=O)N(C4CCC(=O)NC4=O)C5=O)CC2)C3)c1=O (centres unmarked) [Compound 14] | 1 to 10
3 | Cn1cc(-c2ccnc(-n3ncc4cc(C(C)(C)C)cc(F)c4c3=O)c2CO)cc(Nc2cc3n(n2)CCN(CCCCCCc2cccc4c2CN(C2CCC(=O)NC2=O)C4=O)C3)c1=O (centres unmarked) [Compound 19] | 1 to 10
4 | C[C@H]1CN(C(=O)N(C)CCOCCOCCOCCOCCOCCCc2cccc3c2CN(C2CCC(=O)NC2=O)C3=O)CCN1c1ccc(Nc2cc(-c3ccnc(N4CCn5c(cc6c5CC(C)(C)C6)C4=O)c3CO)cn(C)c2=O)nc1 (some centres unmarked) [Compound 45] | 1 to 10
5 | Cn1cc(-c2ccnc(-n3ncc4cc(C(C)(C)C)cc(F)c4c3=O)c2CO)cc(Nc2cc3n(n2)CCN(C(=O)CN2CCN(CCc4cccc5c4CN(C4CCC(=O)NC4=O)C5=O)CC2)C3)c1=O (centres unmarked) [Compound 22] | 10 to 1000
6 | Cn1cc(-c2ccnc(-n3ncc4cc(C(C)(C)C)cc(F)c4c3=O)c2CO)cc(Nc2cc3n(n2)CCN(C(=O)CCCc2cccc4c2CN(C2CCC(=O)NC2=O)C4=O)C3)c1=O (centres unmarked) [Compound 13] | 10 to 1000
7 | C[C@H]1CN(C(=O)C2CC3(CC(Nc4cccc5c4C(=O)N(C4CCC(=O)NC4=O)C5=O)C3)C2)CCN1c1ccc(Nc2cc(-c3ccnc(N4CCn5c(cc6c5CC(C)(C)C6)C4=O)c3CO)cn(C)c2=O)nc1 (some centres unmarked) [Compound 34] | 1 to 10
8 | CN[C@@H](C)C(=O)N[C@H](C(=O)N1C[C@@H](NC(=O)CCOCCC(=O)N2CCn3nc(Nc4cc(-c5ccnc(-n6ncc7cc(C(C)(C)C)cc(F)c7c6=O)c5CO)cn(C)c4=O)cc3C2)C[C@H]1C(=O)N[C@@H]1CCCc2ccccc21)C1CCCCC1 [Compound 4, (2S,4S)-4-(3-(3-(2-((2′-(6-(tert-butyl)-8-fluoro-1-oxophthalazin-2(1H)-yl)-3′-(hydroxymethyl)-1-methyl-6-oxo-1,6-dihydro-[3,4′-bipyridin]-5-yl)amino)-6,7-dihydropyrazolo[1,5-a]pyrazin-5(4H)-yl)-3-oxopropoxy)propanamido)-1-((S)-2-cyclohexyl-2-((S)-2-(methylamino)propanamido)acetyl)—N—((R)-1,2,3,4-tetrahydronaphthalen-1-yl)pyrrolidine-2-carboxamide] | 10 to 1000
9 | C[C@H]1CN(C(=O)CNc2cccc3c2C(=O)N(C2CCC(=O)NC2=O)C3=O)CCN1c1ccc(Nc2cc(-c3ccnc(N4CCn5c(cc6c5CC(C)(C)C6)C4=O)c3CO)cn(C)c2=O)nc1 (some centres unmarked) [Compound 35] | 1 to 10
10 | C[C@H]1CN(C(=O)CCOCCOCCOCCNc2cccc3c2C(=O)N(C2CCC(=O)NC2=O)C3=O)CCN1c1ccc(Nc2cc(-c3ccnc(N4CCn5c(cc6c5CC(C)(C)C6)C4=O)c3CO)cn(C)c2=O)nc1 (some centres unmarked) [Compound 52] | 1 to 10
11 | Cn1cc(-c2ccnc(-n3ncc4cc(C(C)(C)C)cc(F)c4c3=O)c2CO)cc(Nc2cc3n(n2)CCN(C(=O)CCCCc2cccc4c2CN(C2CCC(=O)NC2=O)C4=O)C3)c1=O (centres unmarked) [Compound 11] | 1 to 10
12 | C[C@@H]1CN(C(=O)CCCN2CCN(c3ccc4c(c3)C(=O)N(C3CCC(=O)NC3=O)C4=O)CC2)CCN1c1ccc(Nc2cc(-c3ccnc(N4CCn5c(cc6c5CC(C)(C)C6)C4=O)c3CO)cn(C)c2=O)nc1 (some centres unmarked) [Compound 56] | 1 to 10
13 | C[C@H]1CN(C(=O)CCCCc2cccc3c2CN(C2CCC(=O)NC2=O)C3=O)CCN1c1ccc(Nc2cc(-c3ccnc(N4CCn5c(cc6c5CC(C)(C)C6)C4=O)c3CO)cn(C)c2=O)nc1 (some centres unmarked) [Compound 38] | 1 to 10
14 | C[C@H]1CN(C(=O)CCNc2cccc3c2C(=O)N(C2CCC(=O)NC2=O)C3=O)CCN1c1ccc(Nc2cc(-c3ccnc(N4CCn5c(cc6c5CC(C)(C)C6)C4=O)c3CO)cn(C)c2=O)nc1 (some centres unmarked) [Compound 36] | 10 to 1000
15 | C[C@H]1CN(C(=O)CN2CCN(Cc3cccc4c3CN(C3CCC(=O)NC3=O)C4=O)CC2)CCN1c1ccc(Nc2cc(-c3ccnc(N4CCn5c(cc6c5CC(C)(C)C6)C4=O)c3CO)cn(C)c2=O)nc1 (some centres unmarked) [Compound 27] | 10 to 1000

The next lines start with the values.

Row | DC50 [nM] | SMILES
16 | 1 to 10 | C[C@H]1CN(C(=O)CCOCCC(=O)Nc2cccc3c2CN(C2CCC(=O)NC2=O)C3=O)CCN1c1ccc(Nc2cc(-c3ccnc(N4CCn5c(cc6c5CC(C)(C)C6)C4=O)c3CO)cn(C)c2=O)nc1 (some centres unmarked) [Compound 57]
17 | 1 to 10 | C[C@H]1CN(C(=O)NCCOCCOCCOCCCc2cccc3c2CN(C2CCC(=O)NC2=O)C3=O)CCN1c1ccc(Nc2cc(-c3ccnc(N4CCn5c(cc6c5CC(C)(C)C6)C4=O)c3CO)cn(C)c2=O)nc1 (some centres unmarked) [Compound 47]
18 | 1 to 10 | Cn1cc(-c2ccnc(-n3ncc4cc(C(C)(C)C)cc(F)c4c3=O)c2CO)cc(Nc2cc3n(n2)CCN(C(=O)CCOCCOCCOCCNc2cccc4c2C(=O)N(C2CCC(=O)NC2=O)C4=O)C3)c1=O (centres unmarked) [Compound 3]
19 | 1 to 10 | C[C@H]1CN(C(=O)CCOCCCc2cccc3c2CN(C2CCC(=O)NC2=O)C3=O)CCN1c1ccc(Nc2cc(-c3ccnc(N4CCn5c(cc6c5CC(C)(C)C6)C4=O)c3CO)cn(C)c2=O)nc1 (some centres unmarked) [Compound 43]
20 | 1 to 10 | C[C@H]1CN(C(=O)CCOCCCc2cccc3c2C(=O)N(C2CCC(=O)NC2=O)C3=O)CCN1c1ccc(Nc2cc(-c3ccnc(N4CCn5c(cc6c5CC(C)(C)C6)C4=O)c3CO)cn(C)c2=O)nc1 (some centres unmarked) [Compound 28]
21 | 1 to 10 | Cn1cc(-c2ccnc(-n3ncc4cc(C(C)(C)C)cc(F)c4c3=O)c2CO)cc(Nc2cc3n(n2)CCN(C(=O)[C@H]2CC[C@H](Nc4cccc5c4C(=O)N(C4CCC(=O)NC4=O)C5=O)CC2)C3)c1=O (some centres unmarked) [Compound 15]
22 | 1 to 10 | C[C@@H]1CN(C(=O)CCOCCOCCOCCOCCOCCNc2cccc3c2C(=O)N(C2CCC(=O)NC2=O)C3=O)CCN1c1ccc(Nc2cc(-c3ccnc(N4CCn5c(cc6c5CC(C)(C)C6)C4=O)c3CO)cn(C)c2=O)nc1 (some centres unmarked) [Compound 50]
23 | 1 to 10 | C[C@@H]1CN(CCOCCOCCOCCNc2cccc3c2C(=O)N(C2CCC(=O)NC2=O)C3=O)CCN1c1ccc(Nc2cc(-c3ccnc(N4CCn5c(cc6c5CC(C)(C)C6)C4=O)c3CO)cn(C)c2=O)nc1 (some centres unmarked) [Compound 41]
24 | 1 to 10 | Cn1cc(-c2ccnc(-n3ncc4cc(C(C)(C)C)cc(F)c4c3=O)c2CO)cc(Nc2cc3n(n2)CCN(C(=O)CCCNc2cccc4c2C(=O)N(C2CCC(=O)NC2=O)C4=O)C3)c1=O (centres unmarked) [Compound 9]
25 | 10 to 1000 | Cn1cc(-c2ccnc(-n3ncc4cc(C(C)(C)C)cc(F)c4c3=O)c2CO)cc(Nc2cc3n(n2)CCN(C(=O)CCOCCCc2cccc4c2CN(C2CCC(=O)NC2=O)C4=O)C3)c1=O (centres unmarked) [Compound 2]
26 | 1 to 10 | Cn1cc(-c2ccnc(-n3ncc4cc(C(C)(C)C)cc(F)c4c3=O)c2CO)cc(Nc2cc3n(n2)CCN(C(=O)CNc2cccc4c2C(=O)N(C2CCC(=O)NC2=O)C4=O)C3)c1=O (centres unmarked) [Compound 12]
27 | 1 to 10 | C[C@H]1CN(C(=O)CCCc2cccc3c2CN(C2CCC(=O)NC2=O)C3=O)CCN1c1ccc(Nc2cc(-c3ccnc(N4CCn5c(cc6c5CC(C)(C)C6)C4=O)c3CO)cn(C)c2=O)nc1 (some centres unmarked) [Compound 33]
28 | 1 to 10 | C[C@H]1CN(C(=O)CCOCCNc2cccc3c2C(=O)N(C2CCC(=O)NC2=O)C3=O)CCN1c1ccc(Nc2cc(-c3ccnc(N4CCn5c(cc6c5CC(C)(C)C6)C4=O)c3CO)cn(C)c2=O)nc1 (some centres unmarked) [Compound 55]
29 | 1 to 10 | C[C@@H]1CN(C(=O)CCOCCOCCOCCOCCCc2cccc3c2CN(C2CCC(=O)NC2=O)C3=O)CCN1c1ccc(Nc2cc(-c3ccnc(N4CCn5c(cc6c5CC(C)(C)C6)C4=O)c3CO)cn(C)c2=O)nc1 (some centres unmarked) [Compound 54]
30 | 1 to 10 | Cn1cc(-c2ccnc(-n3ccc4cc(C5CC5)cc(F)c4c3=O)c2CO)cc(Nc2cc3n(n2)CCN(C(=O)CCOCCCc2ccc4c(c2)C(=O)N(C2CCC(=O)NC2=O)C4=O)C3)c1=O (centres unmarked) [Compound 24]
31 | < 1 | C[C@@H]1CN(CCOCCNc2cccc3c2C(=O)N(C2CCC(=O)NC2=O)C3=O)CCN1c1ccc(Nc2cc(-c3ccnc(N4CCn5c(cc6c5CC(C)(C)C6)C4=O)c3CO)cn(C)c2=O)nc1 (some centres unmarked) [Compound 40]
32 | 1 to 10 | C[C@@H]1CN(C(=O)NCCCCCCOCCCc2cccc3c2CN(C2CCC(=O)NC2=O)C3=O)CCN1c1ccc(Nc2cc(-c3ccnc(N4CCn5c(cc6c5CC(C)(C)C6)C4=O)c3CO)cn(C)c2=O)nc1 (some centres unmarked) [Compound 48]
33 | 1 to 10 | C[C@H]1CN(C(=O)CN2CCN(CCCc3cccc4c3CN(C3CCC(=O)NC3=O)C4=O)CC2)CCN1c1ccc(Nc2cc(-c3ccnc(N4CCn5c(cc6c5CC(C)(C)C6)C4=O)c3CO)cn(C)c2=O)nc1 (some centres unmarked) [Compound 30]
34 | 1 to 10 | C[C@@H]1CN(C(=O)N(C)CCOCCOCCOCCOCCCc2cccc3c2CN(C2CCC(=O)NC2=O)C3=O)CCN1c1ccc(Nc2cc(-c3ccnc(N4CCn5c(cc6c5CC(C)(C)C6)C4=O)c3CO)cn(C)c2=O)nc1 (some centres unmarked) [Compound 44]
35 | 1 to 10 | C[C@H]1CN(C(=O)CN2CCN(CCc3cccc4c3CN(C3CCC(=O)NC3=O)C4=O)CC2)CCN1c1ccc(Nc2cc(-c3ccnc(N4CCn5c(cc6c5CC(C)(C)C6)C4=O)c3CO)cn(C)c2=O)nc1 (some centres unmarked) [Compound 26]
